Data: PubChem BioAssay (NCI)
“And” between values parts separate entries of the source, which are not always exact repeats. Identical values can stand only once.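 These data come from cells grown in 96-well plates and exposed to compound for 48 hours at five concentrations. GI50: concentration for 50% inhibition of growth. The concentration for full growth arrest is given as TGI.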

Tests used:
Experiment in all cases: NCI-60 cell line screen, 48 h
OVCAR-4 ovarian = system: OVCAR-4 ovarian
BT-549 breast = system: BT-549 breast
T-47D breast = system: T-47D breast
SK-MEL-5 melanoma = system: SK-MEL-5 melanoma
IGROV1 ovarian = system: IGROV1 ovarian
MDA-MB-435 = system: MDA-MB-435
SW-620 colon = system: SW-620 colon
UO-31 renal = system: UO-31 renal
HL-60(TB) leukemia = system: HL-60(TB) leukemia
CAKI-1 renal = system: CAKI-1 renal
PC-3 prostate = system: PC-3 prostate
MDA-MB-231 breast = system: MDA-MB-231 breast
CCRF-CEM leukemia = system: CCRF-CEM leukemia

| SMILES | TGI (OVCAR-4 ovarian) [µM] | TGI (BT-549 breast) [µM] | TGI (T-47D breast) [µM] | TGI (SK-MEL-5 melanoma) [µM] | TGI (IGROV1 ovarian) [µM] | TGI (MDA-MB-435) | TGI (SW-620 colon) [µM] | TGI (UO-31 renal) [µM] | TGI (HL-60(TB) leukemia) [µM] | TGI (CAKI-1 renal) [µM] | TGI (PC-3 prostate) [µM] | TGI (MDA-MB-231 breast) | TGI (CCRF-CEM leukemia) | GI50 (OVCAR-4 ovarian) [nM] | GI50 (UO-31 renal) [nM] | GI50 (MDA-MB-231 breast) [nM] |
| --- | --- | --- | --- | --- | --- | --- | --- | --- | --- | --- | --- | --- | --- | --- | --- | --- |
| O=C(/C=C/c1ccccc1)Oc1cccc(Br)c1 | > 100 | > 100 | > 100 | > 100 | > 100 | > 100 µM | > 100 | > 100 | 52.1 | > 100 | > 100 | > 100 µM |  |  |  |  |
| C[C@@]12C[C@@H](c3ccccc3O1)N1Cc3ccccc3CSC1=N2 | > 100 | > 100 | > 100 | > 100 | > 100 | > 100 µM | > 100 | > 100 |  | > 100 | > 100 | > 100 µM |  |  |  |  |
| CC1CCOc2ccc(cc2)C=Nc2ccc(cc2)-c2ccc(cc2)N=Cc2ccc(cc2)OCC1 (configuration not stated) | > 100 | > 100 |  | > 100 | > 100 | > 100 µM | > 100 | > 100 | > 100 | > 100 | > 100 | > 100 µM | > 100 µM |  |  |  |
| CO[C@]12CC(=O)C3(C(C[C@H]4CC5CC[C@H]6C[C@@H](OC(C)=O)CC[C@]6(OC(C)=O)C5C[C@@]43C)C1)C1C[C@H]3[C@@H]4CC[C@H]5C[C@@H](OC(C)=O)CC[C@]5(OC(C)=O)[C@H]4CC[C@]3(C)C12 (some centres not stated) | > 100 |  | > 100 | > 100 | > 100 | > 100 µM | > 100 | > 100 |  | > 100 | > 100 | > 100 µM | > 100 µM |  |  |  |
| CC(=O)O[C@H]1C[C@](C)(O)[C@@]23CC([C@@H](OC(=O)C(C)(C)O)[C@@H](OC(C)=O)C2(COC(=O)c2ccccc2)[C@H]1OC(C)=O)C(C)(C)O3 (some centres not stated) | > 100 | > 100 | > 100 | > 100 | > 100 | > 100 µM | > 100 | > 100 |  | > 100 | > 100 | > 100 µM | > 100 µM |  |  |  |
| N#CCc1nc2cc(C(F)(F)F)ccc2s1 | > 100 | > 100 | > 100 | > 100 |  | > 100 µM | > 100 |  |  | > 100 |  | > 100 µM |  |  |  |  |
| S=C(N/N=C(\C(=N/NC(=S)N1CCCCC1)c1ccccn1)c1ccccn1)N1CCCCC1 |  | > 100 |  | > 100 | > 100 | > 100 µM | > 100 | > 100 | 19.8 | > 100 | > 100 | > 100 µM | 57.4 µM |  |  |  |
| O=C1CCC2(c3ccc(Cl)cc3)Nc3ncncc3N12 (configuration not stated) | > 10 | > 10 |  |  | > 10 | > 10 µM | > 10 | > 10 |  |  | > 10 |  | > 10 µM |  |  |  |
| COc1cc(C2c3cc(OC)c(OC)c(O)c3C(=O)C3CCC(=O)N32)cc(OC)c1OC (configuration not stated) | > 100 | 91.3 | > 100 | > 100 | > 100 | 39.5 µM | > 100 |  | > 100 | > 100 | > 100 | > 100 µM |  |  |  |  |
| OCC1OC(c2ccccc2)CC1O (configuration not stated) | > 100 |  |  | > 100 | > 100 | > 100 µM | > 100 | > 100 | > 100 | > 100 |  | > 100 µM | > 100 µM |  |  |  |
| CC(C)C1=C(Cc2ccccc2)C(=O)O/C1=C\c1ccc(O)c(Cl)c1 | 27.8 | 36.7 |  | 31.2 | 30.5 | 30.7 µM | 34.9 | 27.5 | 37.7 | 32.9 | 31.7 | 29.9 µM | 46.8 µM |  |  |  |
| COc1ccc(C2C(C#N)=C(S)N(C3OC(CO)C(O)C(O)C3O)C(C)=C2C(C)=O)cc1 (configuration not stated) | > 100 | > 100 | 97.1 | > 100 | > 100 | > 100 µM | > 100 | > 100 | > 100 |  | > 100 | > 100 µM | > 100 µM |  |  |  |
| Cc1ccc(N=C2SC(=NN(C)C)SC2=Nc2ccc(C)cc2)cc1 | > 100 |  | > 100 | > 100 | > 100 | > 100 µM | > 100 | > 100 | > 100 | > 100 | > 100 | > 100 µM | > 100 µM |  |  |  |
| O=C(CC(c1ccccc1)C(C(=O)c1ccncc1)C(CC(=O)c1ccncc1)c1ccccc1)c1ccncc1 (configuration not stated) |  | 57.3 | > 100 |  | > 100 | > 100 µM | > 100 | > 100 | > 100 | > 100 | > 100 | > 100 µM | > 100 µM |  |  |  |
| COc1cc2[nH]c(=O)c3cc(C)cc4c(Cl)nc(c1OC)c2c43 | > 100 | > 100 |  | > 100 | > 100 | > 100 µM | > 100 | > 100 | > 100 | > 100 | > 100 | > 100 µM | > 100 µM |  |  |  |
| COc1ccc(C2=NNC(c3cc4cc(Br)ccc4nc3Cl)C2)cc1 (configuration not stated) | > 25 | > 25 | > 25 |  | > 25 | > 25 µM | > 25 | > 25 | 12.1 | > 25 | > 25 |  | 5.28 µM |  |  |  |
| Cc1c2oc3c(C)cc(F)c(C(=O)NC4C(=O)NC(C(C)C)C(=O)N5CCCC5C(=O)N(C)CC(=O)N(C)C(C(C)C)C(=O)OC4C)c3nc-2c(C(=O)NC2C(=O)NC(C(C)C)C(=O)N3CCCC3C(=O)N(C)CC(=O)N(C)C(C(C)C)C(=O)OC2C)c(N)c1=O (configuration not stated) | > 100 |  |  | 0.223 | > 100 | 1.42 µM and 1.19 µM | 3.77 | 4.65 | 0.161 | 3.73 | 4.68 | 6.8 µM and 2.45 µM | 0.0385 µM and 0.309 µM | 559 | 458 | 18.6 |
| COc1ccc(N2C(=O)C3c4[nH]c5ccccc5c4C4c5ccccc5CC4C3C2=O)cc1 (configuration not stated) | > 100 | > 100 | > 100 |  | > 100 | > 100 µM | > 100 | > 100 | > 100 | > 100 | > 100 | > 100 µM | > 100 µM |  |  |  |
